Reference: patent US20260083704A1, “LXR MODULATORS WITH BICYCLIC CORE MOIETY FOR TREATING DYSLIPIDEMIAS” (OrsoBio, Inc., priority 2022, published 2026)

Assays:
[1] = biological target: T1, GST-LXRβ ligand-binding domain (Homo sapiens, UniProt P55055); experiment: TR-FRETβ activity assay (NCoA3 coactivator peptide recruitment); assay type: biochemical; conditions: 1 μM 24(S)-25-epoxycholesterol prestimulation
T1 construct: amino acids 156-461; NP009052; made in house; host or cells: E. coli
T1 sequence (P55055 156-460 limits assumed): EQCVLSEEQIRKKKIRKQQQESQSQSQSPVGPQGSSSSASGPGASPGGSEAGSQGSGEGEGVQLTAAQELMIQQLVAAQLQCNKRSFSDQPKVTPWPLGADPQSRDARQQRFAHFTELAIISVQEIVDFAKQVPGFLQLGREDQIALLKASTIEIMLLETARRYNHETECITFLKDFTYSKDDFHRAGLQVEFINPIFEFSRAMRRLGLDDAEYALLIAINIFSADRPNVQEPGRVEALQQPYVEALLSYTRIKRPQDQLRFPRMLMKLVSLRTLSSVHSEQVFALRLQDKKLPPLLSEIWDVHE
Experimental: Recombinant GST-LXRβ ligand-binding domain (LBD; amino acids 156-461; NP009052; SEQ ID NO:4) was expressed in E. coli and purified via gluthatione-sepharose affinity chromatography. N-terminally biotinylated NCoA3 coactivator peptide (SEQ ID NO:7) was chemically synthesized (Eurogentec). Assays were done in 384 well format (final assay volume of 25 μL/well) in a Tris/HCl buffer (pH 6.8) containing KCl, bovine serum albumin, Triton-X-100 and 1 μM 24(S)-25-epoxycholesterol as LXR-prestimulating agonist. Assay buffer was provided and test articles (potential LXR inverse agonists) were titrated to yield final assay concentrations of 50 μM, 16.7 μM, 5.6 μM, 1.9 μM, 0.6 μM, 0.2 μM, 0.07 μM, 0.02 μM, 0.007 μM, 0.002 μM with one vehicle control. Finally, a detection mix was added containing anti GST-Tb cryptate (CisBio; 610SAXLB) and Streptavidin-XL665 (CisBio; 610SAXLB) as fluorescent donor and acceptor, respectively, as well as the coactivator peptide and LXRβ-LBD protein (SEQ ID NO:4). The reaction was mixed thoroughly, equilibrated for 1 h at 4° C. and vicinity of LXRβ and coactivator peptide was detected by measurement of fluorescence in a VictorX4 multiplate reader (PerkinElmer Life Science) using 340 nm as excitation and 615 and 665 nm as emission wavelengths. Assays were performed in triplicates.
240 mM KCl, 1 μg/μL BSA, 0.002% Triton-X-100, […] anti GST-Tb cryptate, 2.5 ng/μL Streptavidin-XL665, coactivator peptide (400 nM), LXRβ protein (530 μg/mL, i.e. 76 nM).

LXRβ = biological target: T2, LXRβ (Homo sapiens, UniProt P55055); experiment: LXR Gal4 reporter transient transfection assay (mammalian two-hybrid, HEK293), LXRβ; assay type: cell-based; design: LXRβ (amino acids 156-461); expressed in transfected cells; host or cells: HEK293; conditions: full length (FL) LXRβ, HEK293; read-out: FL-M2H Gal4β
T2 sequence (P55055 1-460): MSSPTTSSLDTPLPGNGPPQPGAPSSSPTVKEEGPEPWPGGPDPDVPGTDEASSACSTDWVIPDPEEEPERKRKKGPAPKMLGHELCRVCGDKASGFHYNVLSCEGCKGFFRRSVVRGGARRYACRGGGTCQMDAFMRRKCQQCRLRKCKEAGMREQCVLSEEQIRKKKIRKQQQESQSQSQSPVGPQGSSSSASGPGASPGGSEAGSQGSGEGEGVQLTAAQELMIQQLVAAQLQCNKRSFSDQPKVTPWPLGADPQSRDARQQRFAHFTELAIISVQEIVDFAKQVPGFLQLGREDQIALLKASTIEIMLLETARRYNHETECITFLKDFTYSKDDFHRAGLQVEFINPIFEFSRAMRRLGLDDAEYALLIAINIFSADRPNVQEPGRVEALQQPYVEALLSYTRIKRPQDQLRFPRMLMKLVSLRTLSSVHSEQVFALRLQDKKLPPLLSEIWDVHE
Experimental: LXRα and LXRβ activity status was determined via detection of interaction with coactivator and corepressor proteins in mammalian two-hybrid experiments (M2H). For this, via transient transfection the full length (FL) proteins of LXRα (amino acids 1-447; NP005684; SEQ ID NO:1) or LXRβ-(amino acids 1-461; NP009052; SEQ ID NO:2) or the ligand-binding domains (LBD) of LXRα (amino acids 155-447 SEQ ID NO:3) or LXRβ (amino acids 156-461; SEQ ID NO:4) were expressed from pCMV-AD (Stratagene) as fusions to the transcriptional activation domain of NFkB. As cofactors, domains of either the steroid receptor coactivator 1 (SRC1; amino acids 552-887; SEQ ID NO:5) or of the corepressor NCoR (amino acids 1906-2312; NP006302; SEQ ID NO:6) were expressed as fusions to the DNA binding domain of the yeast transcription factor GAL4 (from pCMV-BD; Stratagene). Interaction was monitored via activation of a coexpressed Firefly Luciferase Reporter gene under control of a promoter containing repetitive GAL4 response elements (vector pFRLuc; Stratagene). Transfection efficiency was controlled via cotransfection of constitutively active pRL-CMV Renilla reniformis luciferase reporter (Promega). HEK293 cells were grown in minimum essential medium (MEM) with 2 mM L-glutamine and Earle's balanced salt solution supplemented with 8.3% fetal bovine serum, 0.1 mM non-essential amino acids, 1 mM sodium pyruvate, at 37° C. in 5% CO2. 3.5×10^4 cells/well were plated in 96-well cell culture plates in growth medium supplemented with 8.3% fetal bovine serum for 16-20 h to ˜90% confluency. For transfection, medium was taken off and LXR and cofactor expressing plasmids as well as the reporter plasmids are added in 30 μL OPTIMEM/well including polyethylene-imine (PEI) as vehicle. Typical amounts of plasmids transfected/well: pCMV-AD-LXR (5 ng), pCMV-BD-cofactor (5 ng), pFR-Luc (100 ng), pRL-CMV (0.5 ng). Compound stocks were prepared in DMSO, prediluted in MEM to a total volume of 120 μL, and added 4 h after addition of the transfection mixture (final vehicle concentration not exceeding 0.2%). Cells were incubated for additional 16 h, lysed for 10 min in 1×Passive Lysis Buffer (Promega) and Firefly and Renilla luciferase activities were measured sequentially in the same cell extract using buffers containing D-luciferine and coelenterazine, respectively. Measurements of luminescence were done in a BMG-luminometer.
The potencies of Compound 21/3 and its analog, Compound pre-6/3, against LXRα and LXRβ were evaluated in biochemical binding assays, cellular mammalian two-hybrid (M2H) interaction assays evaluating nuclear receptor co-repressor (NCOR) recruitment, and cellular reporter assays evaluating transcriptional activity (Table 5).

Row | SMILES | EC50 [1] [nM] | EC50 (LXRβ) [nM]
1 | Cc1ccc(S(=O)(=O)n2c(-c3cccc(-c4ccc(C(=O)O)nc4C)c3)c(-c3ccsc3C#N)c3cc(F)ccc32)cc1 [36/1] | 100 to 1000 | < 100
2 | Cc1ccc(S(=O)(=O)n2c(-c3cc(N4CC(C(=O)O)C4)ccc3F)c(-c3ccsc3C#N)c3cc(F)ccc32)cc1 [3/41] | 1000 to 10000 | < 100
3 | Cc1ccc(S(=O)(=O)n2c(-c3cccc(N4[C@@H]5CC[C@H]4C[C@@H](C(=O)O)C5)c3)c(-c3ccsc3C#N)c3cc(F)ccc32)cc1 [3/58] | 1000 to 10000 | < 100
4 | CC(O)(C(=O)O)c1ccc(-c2cccc(-c3c(-c4c(C#N)cccc4C#N)c4cc(F)ccc4n3S(=O)(=O)c3ccc(C(F)F)cc3)c2)cc1 (stereo not drawn) [11/59] | < 100 | < 100
5 | Cc1ccc(S(=O)(=O)n2c(-c3cc(N4CC(C(=O)O)C4)ccc3Cl)c(-c3ccsc3C#N)c3cc(F)ccc32)cc1 [3/40] | 1000 to 10000 | < 100
6 | Cc1ccc(S(=O)(=O)n2c(-c3cccc(-c4ccc(CN(C)C)cc4)c3)c(-c3ccsc3C#N)c3cc(F)ccc32)cc1 [8/1] | 100 to 1000 | < 100
7 | N#Cc1sccc1-c1c(-c2cccc(N3CCC(C(=O)O)CC3)c2)n(S(=O)(=O)c2ccc(C(F)F)cc2)c2ccc(F)cc12 [3/60] | 100 to 1000 | < 100
8 | O=C(O)c1ccc(-c2cccc(-c3c(-c4cccc5oncc45)c4cc(F)ccc4n3S(=O)(=O)c3ccc(C(F)F)cc3)c2)c(Cl)c1 [3/69] | 100 to 1000 | 100 to 1000
9 | Cc1ccc(S(=O)(=O)n2c(-c3cccc(-c4ccc(C(=O)O)nc4)c3)c(-c3ccsc3C#N)c3cc(F)ccc32)cc1 [3/47] | 100 to 1000 | < 100
10 | Cn1cccc(-c2c(-c3cccc(-c4ccc(C(=O)O)cc4Cl)c3)n(S(=O)(=O)c3ccc(C(F)F)cc3)c3ccc(F)cc23)c1=O [11/47] | 100 to 1000 | 100 to 1000
11 | Cc1ccc(S(=O)(=O)n2c(-c3cccc(C4CC4C(=O)O)c3)c(-c3ccsc3C#N)c3cccnc32)cc1 (stereo not drawn) [4/2] | 1000 to 10000 | 100 to 1000
12 | O=C(O)c1ccc(-c2cccc(-c3c(-c4ncccc4OC(F)F)c4cc(F)ccc4n3S(=O)(=O)c3ccc(C(F)F)cc3)c2)c(Cl)c1 [11/41] | < 100 | < 100
13 | CN1CC(F)(c2ccccc2-c2c(-c3cccc(-c4ccc(C(=O)O)cc4Cl)c3)n(S(=O)(=O)c3ccc(C(F)F)cc3)c3ccc(F)cc23)C1 [3/62] | 100 to 1000 | < 100
14 | Cc1ccc(S(=O)(=O)n2c(-c3cccc(N4CC(C)(C(=O)O)C4)c3)c(-c3ccsc3C#N)c3cc(F)ccc32)cc1 [3/37] | 100 to 1000 | < 100
15 | O=C(NCCS(=O)(=O)O)C1CC1c1cccc(-c2c(-c3c(Cl)cccc3Cl)c3cc(F)ccc3n2S(=O)(=O)c2ccc(C(F)F)cc2)c1 (stereo not drawn) [10/4] | < 100 | < 100
16 | CC(O)(C(=O)O)c1cc(F)c(-c2cccc(-c3c(-c4c(C#N)cccc4C#N)c4cc(F)ccc4n3S(=O)(=O)c3ccc(C(F)F)cc3)c2)c(F)c1 (stereo not drawn) [3/72] | < 100 | < 100
17 | Cc1ccc(S(=O)(=O)n2c(-c3cccc(-n4ccc(C(=O)O)cc4=O)c3)c(-c3ccsc3C#N)c3cc(F)ccc32)cc1 [5/5] | 100 to 1000 | 100 to 1000
18 | N#Cc1sccc1-c1c(-c2cccc(-c3ccc(C(=O)O)cc3)c2)n(S(=O)(=O)c2ccc3c(c2)CCC3)c2ccc(F)cc12 [23/3] | 100 to 1000 | < 100
19 | COc1c(C(=O)O)ccc(-c2cccc(-c3c(-c4ccsc4C#N)c4cc(F)ccc4n3S(=O)(=O)c3ccc(C)cc3)c2)c1Cl [12/5] | < 100 | < 100
20 | O=C(O)c1ccc(-c2cccc(-c3c(-c4cccc5nncn45)c4cc(F)ccc4n3S(=O)(=O)c3ccc(C(F)F)cc3)c2)c(Cl)c1 [11/43] | 100 to 1000 | 100 to 1000
21 | Cc1ccc(S(=O)(=O)n2c(-c3cccc(-c4cc(C(=O)O)nn4C)c3)c(-c3ccsc3C#N)c3cc(F)ccc32)cc1 [12/7] | 100 to 1000 | 100 to 1000
22 | O=C(O)c1ccc(-c2cccc(-c3c(-c4ccccc4C4COC4)c4cnccc4n3S(=O)(=O)c3ccc(C(F)F)cc3)c2)c(Cl)c1 [8/3] | 100 to 1000 | < 100
23 | N#Cc1cccc(C#N)c1-c1c(-c2cccc(-c3ccc(C(=O)O)cc3Cl)c2)n(S(=O)(=O)c2ccc(Cl)cc2)c2ccc(F)cc12 [11/55] | < 100 | < 100
24 | CCc1ccc(S(=O)(=O)n2c(-c3cccc(N4CC(C(=O)O)C4)c3)c(-c3ccsc3C#N)c3cc(F)ccc32)cc1 [3/10] | 100 to 1000 | < 100
25 | Cc1ccc(S(=O)(=O)n2c(-c3cccc(-c4cc(C(=O)O)nn4C(C)C)c3)c(-c3ccsc3C#N)c3cc(F)ccc32)cc1 [12/8] | 1000 to 10000 | 100 to 1000
26 | Cc1ccc(S(=O)(=O)n2c(-c3cccc(-c4ccc(C(=O)O)cc4)c3)c(-c3ccsc3C#N)c3cc(F)cc(O)c32)cc1 [3/54] | 100 to 1000 | < 100
27 | N#Cc1sccc1-c1c(-c2cccc(N3CC(C(=O)O)C3)c2)n(S(=O)(=O)c2ccc3ccccc3c2)c2ccc(F)cc12 [3/13] | 1000 to 10000 | < 100
28 | [2H]c1c([2H])c(S(=O)(=O)n2c(-c3cccc(-c4ccc(C(=O)O)cc4Cl)c3)c(-c3ccsc3C#N)c3cc(F)ccc32)c([2H])c([2H])c1C([2H])([2H])[2H] [3/22] | < 100 | < 100
29 | COc1ccc(S(=O)(=O)n2c(-c3cccc(N4CC(C(=O)O)C4)c3)c(-c3ccsc3C#N)c3cc(F)ccc32)cn1 [5/8] | 100 to 1000 | 100 to 1000
30 | Cc1ccc(S(=O)(=O)n2c(-c3cccc(-c4ccc(C(=O)O)cc4Cl)c3)c(-c3cccc(F)c3C#N)c3cc(F)ccc32)cc1 [11/1] | < 100 | < 100
